Columns and labels:
[1] = system: lumbago or chronic stiffness in the shoulder; assay: Clinical test, cataplasm (Table 1); format: in vivo, human; details: versus sucrose; Tables 1 and 2
Description: A clinical paramedic conducted the experiment and, after the experiment, asked the therapeutic effect and the side effects of the volunteers. The therapeutic effect was evaluated with four ranks of "very effective", "effective", "unchanged", and "worsened", and the effectivity (%) was calculated as a percentage of the number of volunteers, who answered "very effective" and "effective", to the total number of volunteers.

[2] = system: blood flow, dorsum cucullaris of volunteer with stiffness in both shoulders; assay: Plethysmogram / volume pulse wave (PTG), improvement of blood circulation; format: in vivo, human; details: similar experiment on vitamin P, cataplasm, MV and PTG
Description: MV is an apparatus for recording micro-vibration of ballistic components accompanied by muscular fibers in vivo and heartbeat by converting the micro-vibration into an electrodynamic phenomenon where peaks are detected at a high-frequency region in patients with muscular rigidity such as stiffness in the shoulder, and the peaks are shifted to a lower-frequency region as the muscular rigidity is relived. PTG is an apparatus for detecting blood flow as a vascular change in pressure and for expressing change in volume as a wave-height level; When the wave-height level is increased as the increment of blood flow in a stiff part in the shoulder, meaning that blood circulation is improved.
The patient was monitored for both MV and PTG by a polygraph for 20 min, and the data were recorded by a data recorder.
On the next morning, the cataplasm was removed from the volunteer while they were allowed to lay on the bed, followed by attaching pickups to the same part as of the cataplasm for measuring and recording MV and PTG for 30 min and for two hours, respectively, similarly as above.

Molecule	effect of trehalose on the muscular-rigidity-relieving activity of glycosyl vitamin P [1]	effect as compared with control [2]
OC[C@H]1O[C@H](O[C@H]2O[C@H](CO)[C@@H](O)[C@H](O)[C@H]2O)[C@H](O)[C@@H](O)[C@@H]1O [trehalose]	significantly augmented	–
vitamin P	–	substantially showed no remarkable effect
